Results on 23 compounds are retold here after patent publication US20200207734A1, “HETEROCYCLIC COMPOUND AND USE THEREOF” (Takeda Pharmaceutical Company Limited, priority 2017, published 2020).

This assay addresses T1, human orexin type 2 receptor (Homo sapiens, UniProt O43614).
T1 construct: human orexin type 2 receptor cDNA was inserted into pcDNA3.1(+) plasmid vector (Invitrogen); expressed in transfected cells
T1 sequence (O43614 1-444): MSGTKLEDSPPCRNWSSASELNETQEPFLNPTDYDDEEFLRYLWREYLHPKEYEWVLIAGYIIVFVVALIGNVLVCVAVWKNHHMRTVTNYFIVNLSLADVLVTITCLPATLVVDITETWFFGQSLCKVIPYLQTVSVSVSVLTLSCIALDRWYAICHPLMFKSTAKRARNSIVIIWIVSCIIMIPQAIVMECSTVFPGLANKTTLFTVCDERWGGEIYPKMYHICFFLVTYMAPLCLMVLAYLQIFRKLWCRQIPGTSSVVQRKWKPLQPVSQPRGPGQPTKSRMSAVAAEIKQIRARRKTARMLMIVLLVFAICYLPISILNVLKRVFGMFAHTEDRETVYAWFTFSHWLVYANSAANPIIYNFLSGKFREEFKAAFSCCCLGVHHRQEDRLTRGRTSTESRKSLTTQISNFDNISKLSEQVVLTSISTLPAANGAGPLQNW
Description: Measurement of orexin type 2 receptor agonist activity (calcium fluorescence, CHO cells expressing hOX2R). It counts as cell-based. To be noted: test compound 3 μM; CHO cells expressing human OX2 receptor; DMSO = 0%, orexin A (human) = 100%. The text has this:
To obtain a cell clone stably expressing human orexin type 2 receptor, human orexin type 2 receptor cDNA was inserted into pcDNA3.1(+) plasmid vector (Invitrogen), and a plasmid DNA for expression of human orexin type 2 receptor (pcDNA3.1(+)/hOX2R) was cloned. The plasmid DNA was introduced into CHO-dhfr cell by an electroporation method, and human orexin type 2 receptor expressing clone cells were obtained by limiting dilution method by using G418 drug resistance as a selection marker.
CHO cells forcibly expressing human OX2 receptor were seeded in each well of 384 well black transparent bottom plate (BD Falcon) at 7,500 cells/well, and cultured for one day in a 5% CO2 incubator at 37° C. After removal of the medium in the cell plate, assay buffer A containing a calcium indicator (HBSS (Thermo Fisher Scientific), 20 mM HEPES (Thermo Fisher Scientific), 0.1% BSA (Wako Pure Chemical Industries, Ltd. or Sigma-Aldrich), 2.5 μg/mL Fluo-4 AM (DOJINDO Chemical), 0.08% Pluronic F127 (DOJINDO Chemical), 1.25 mM probenecid (DOJINDO Chemical)) was added at 30 μL/well. The plate was stood for 30 min in a 5% CO2 incubator at 37° C., and further stood at room temperature for 30 min. A test compound prepared by diluting with assay buffer B (HBSS, 20 mM HEPES, 0.1% BSA) was added at 10 μL/well, and the fluorescence value was measured by FDSSμCELL (Hamamatsu Photonics K.K.) every one sec for 1 min, and thereafter every two sec for 1 min 40 sec. The activity (%) of the test compound was calculated assuming that variation in the fluorescence value when DMSO was added instead of the test compound was 0%, and variation in the fluorescence value when orexin A (human) (PEPTIDE INSTITUTE, INC.) was added at the final concentration of 10 nM was 100%.
As for `CS(=O)(=O)N[C@H]1CCN(C(=O)C2CCC2)[C@H]1Cc1csc(-c2cccc(F)c2F)n1` (relative stereo) [Example 256, N-(cis-1-(cyclobutylcarbonyl)-2-((2-(2,3-difluorophenyl)-1,3-thiazol-4-yl)methyl)pyrrolidin-3-yl)methanesulfonamide], the “OX2R agonist activity (3 μM, %)” value stood at 97%. Take `CS(=O)(=O)N[C@H]1CCN(C(=O)C2CCC2)[C@H]1Cc1csc(-c2cc(F)cc(F)c2)n1` (relative stereo) [Example 258, N-(cis-1-(cyclobutylcarbonyl)-2-((2-(3,5-difluorophenyl)-1,3-thiazol-4-yl)methyl)pyrrolidin-3-yl)methanesulfonamide]: the “OX2R agonist activity (3 μM, %)” value was determined as 95%. For `O=C(C1CCC1)N1CC[C@H](NS(=O)(=O)C2CC2)[C@@H]1Cc1csc(-c2ccccc2)n1` (relative stereo) [Example 259, N-(cis-1-(cyclobutylcarbonyl)-2-((2-phenyl-1,3-thiazol-4-yl)methyl)pyrrolidin-3-yl)cyclopropanesulfonamide], the “OX2R agonist activity (3 μM, %)” value is 95%.

On to `O=C(C1CCC1)N1CC[C@H](NS(=O)(=O)CF)[C@@H]1Cc1csc(-c2ccccc2)n1` (relative stereo) [Example 269, N-(cis-1-(cyclobutylcarbonyl)-2-((2-phenyl-1,3-thiazol-4-yl)methyl)pyrrolidin-3-yl)-1-fluoromethanesulfonamide], for which the “OX2R agonist activity (3 μM, %)” value was determined as 111%. Regarding `CC(C)C(=O)N1CC[C@H](NS(C)(=O)=O)[C@@H]1Cc1cccc(-c2ccccc2)c1F` (relative stereo) [Example 293, N-(cis-2-((2-fluorobiphenyl-3-yl)methyl)-1-isobutyrylpyrrolidin-3-yl)methanesulfonamide], the “OX2R agonist activity (3 μM, %)” value was found to be 102%.

Consider `CC(C)C(=O)N1CC[C@H](NS(C)(=O)=O)[C@@H]1Cc1cccc(-c2cccc(F)c2)c1F` (relative stereo) [Example 294, N-(cis-2-((2,3′-difluorobiphenyl-3-yl)methyl)-1-isobutyrylpyrrolidin-3-yl)methanesulfonamide], for which the “OX2R agonist activity (3 μM, %)” value is recorded as 104%. For `CS(=O)(=O)N[C@H]1CCN(C(=O)C2CCC2)[C@H]1Cc1cc(F)cc(-c2ccccc2)c1` (relative stereo) [Example 299, N-(cis-1-(cyclobutylcarbonyl)-2-((5-fluorobiphenyl-3-yl)methyl)pyrrolidin-3-yl)methanesulfonamide] the value was 100%. `CS(=O)(=O)N[C@H]1CCN(C(=O)C2CCC2)[C@H]1Cc1cc(F)cc(-c2cccc(F)c2)c1` (relative stereo) [Example 300, N-(cis-1-(cyclobutylcarbonyl)-2-((3′,5-difluorobiphenyl-3-yl)methyl)pyrrolidin-3-yl)methanesulfonamide]: the “OX2R agonist activity (3 μM, %)” value was 99%. For `CS(=O)(=O)N[C@H]1CCN(C(=O)C2CCC2)[C@H]1Cc1ccc(F)c(-c2ccccc2)c1` (relative stereo) [Example 303, N-(cis-1-(cyclobutylcarbonyl)-2-((6-fluorobiphenyl-3-yl)methyl)pyrrolidin-3-yl)methanesulfonamide] the value was 95%; for `CS(=O)(=O)N[C@H]1CCN(C(=O)C2CCC2)[C@H]1Cc1ccc(F)c(-c2cccc(F)c2)c1` (relative stereo) [Example 304, N-(cis-1-(cyclobutylcarbonyl)-2-((3′,6-difluorobiphenyl-3-yl)methyl)pyrrolidin-3-yl)methanesulfonamide], 94%. The result for `CCS(=O)(=O)N[C@H]1CCN(C(=O)C2CCC2)[C@H]1Cc1csc(-c2cc(F)cc(F)c2)n1` (relative stereo) [Example 315, N-(cis-1-(cyclobutylcarbonyl)-2-((2-(3,5-difluorophenyl)-1,3-thiazol-4-yl)methyl)pyrrolidin-3-yl)ethanesulfonamide] reads 105%. In the case of `CCS(=O)(=O)N[C@H]1CCN(C(=O)C2(C)CCC2)[C@H]1Cc1csc(-c2cc(F)cc(F)c2)n1` (relative stereo) [Example 316, N-(cis-2-((2-(3,5-difluorophenyl)-1,3-thiazol-4-yl)methyl)-1-((1-methylcyclobutyl)carbonyl)pyrrolidin-3-yl)ethanesulfonamide], the “OX2R agonist activity (3 μM, %)” value is recorded as 104%. Take `CCS(=O)(=O)N[C@H]1CCN(C(=O)C2(O)CCC2)[C@H]1Cc1csc(-c2cc(F)cc(F)c2)n1` (relative stereo) [Example 317, N-(cis-2-((2-(3,5-difluorophenyl)-1,3-thiazol-4-yl)methyl)-1-((1-hydroxycyclobutyl)carbonyl)pyrrolidin-3-yl)ethanesulfonamide]: the “OX2R agonist activity (3 μM, %)” value worked out at 103%.

Consider `CCS(=O)(=O)N[C@H]1CCN(C(=O)C23CC(C2)C3)[C@H]1Cc1csc(-c2cc(F)cc(F)c2)n1` (relative stereo) [Example 318, N-(cis-1-(bicyclo[1.1.1]pent-1-ylcarbonyl)-2-((2-(3,5-difluorophenyl)-1,3-thiazol-4-yl)methyl)pyrrolidin-3-yl)ethanesulfonamide], for which the “OX2R agonist activity (3 μM, %)” value is 102%. Turning to `CS(=O)(=O)N[C@H]1CCN(C(=O)C2CCC2)[C@H]1Cc1csc(-c2ccccc2)n1` (relative stereo) [Example 319, N-(cis-1-(cyclobutylcarbonyl)-2-((2-phenyl-1,3-thiazol-4-yl)methyl)pyrrolidin-3-yl)methanesulfonamide], the “OX2R agonist activity (3 μM, %)” value was found to be 101%. The result for `CC1(C(=O)N2CC[C@H](NS(C)(=O)=O)[C@@H]2Cc2csc(-c3cc(F)cc(F)c3)n2)CCC1` (relative stereo) [Example 322, N-(cis-2-((2-(3,5-difluorophenyl)-1,3-thiazol-4-yl)methyl)-1-((1-methylcyclobutyl)carbonyl)pyrrolidin-3-yl)methanesulfonamide] reads 104%; that for `CS(=O)(=O)N[C@H]1CCN(C(=O)C2(O)CCC2)[C@H]1Cc1csc(-c2cc(F)cc(F)c2)n1` (relative stereo) [Example 323, N-(cis-2-((2-(3,5-difluorophenyl)-1,3-thiazol-4-yl)methyl)-1-((1-hydroxycyclobutyl)carbonyl)pyrrolidin-3-yl)methanesulfonamide], 109%; that for `CS(=O)(=O)N[C@H]1CCN(C(=O)N2CCC2)[C@H]1Cc1cccc(-c2cccc(F)c2)n1` (relative stereo) [Example 333, N-(cis-1-(azetidin-1-ylcarbonyl)-2-((6-(3-fluorophenyl)pyridin-2-yl)methyl)pyrrolidin-3-yl)methanesulfonamide], 101%. In the case of `CS(=O)(=O)N[C@H]1CCN(C(=O)C2(O)CCC2)[C@H]1Cc1cccc(-c2cccc(F)c2)n1` (relative stereo) [Example 338, N-(cis-2-((6-(3-fluorophenyl)pyridin-2-yl)methyl)-1-((1-hydroxycyclobutyl)carbonyl)pyrrolidin-3-yl)methanesulfonamide], the “OX2R agonist activity (3 μM, %)” value stood at 103%. Regarding `CC(C)OC(=O)N1CCCC(NS(C)(=O)=O)C1Cc1cccc(-c2ccccc2)n1` (stereo not drawn) [Example 76, Optically Active isopropyl cis-3-((methylsulfonyl)amino)-2-((6-phenylpyridin-2-yl)methyl)piperidine-1-carboxylate], the “OX2R agonist activity (3 μM, %)” value came to 106%. As for `CCOC(=O)N1CC[C@H](NS(C)(=O)=O)[C@@H]1Cc1cccc(-c2ccccc2)c1` [Example 101, ethyl (2S,3S)-2-(biphenyl-3-ylmethyl)-3-((methylsulfonyl)amino)pyrrolidine-1-carboxylate], the “OX2R agonist activity (3 μM, %)” value was determined as 96%. As to `CC(C)OC(=O)N1CCCC(NS(C)(=O)=O)C1Cc1csc(-c2ccccc2)n1` (stereo not drawn) [Example 210, Optically Active isopropyl cis-3-((methylsulfonyl)amino)-2-((2-phenyl-1,3-thiazol-4-yl)methyl)piperidine-1-carboxylate], the “OX2R agonist activity (3 μM, %)” value came to 102%. As for `CS(=O)(=O)N[C@H]1CCN(C(=O)C2CCC2)[C@H]1Cc1cccc(-c2ccccc2)c1` [Example 261, N-((2S,3S)-2-(biphenyl-3-ylmethyl)-1-(cyclobutylcarbonyl)pyrrolidin-3-yl)methanesulfonamide], the “OX2R agonist activity (3 μM, %)” value amounted to 97%.
